Reference: patent US7196080B2, “Phenylpyridinecarbonylpiperazinederivative” (Astellas Pharma Inc., priority 2001, dated 2007)

What was measured:
[1] = molecular target: PDE5 (Homo sapiens, UniProt O76074); experiment: PDE5 inhibitory activity; format: biochemical; conditions: in the same concentration (as the PDE4 IC50, 12 nM or less)
Experimental: (§1) A concentration of test compound which inhibits 50% of the metabolic activity of PDE4 was defined as IC50 and calculated for each compound. By applying the above test method and the method described in WO 97/19078, inhibitory activity against PDE1, PDE2, PDE3 and PDE5 was measured similarly.

[2] = test system: PDE1; experiment: PDE1 inhibitory activity; format: biochemical; conditions: in the same concentration (as the PDE4 IC50, 12 nM or less)
Experimental: as §1

[3] = molecular target: PDE2 (Homo sapiens, UniProt O00408); experiment: PDE2 inhibitory activity; format: biochemical; conditions: in the same concentration (as the PDE4 IC50, 12 nM or less)
Experimental: as §1

[4] = test system: PDE3; experiment: PDE3 inhibitory activity; format: biochemical; conditions: in the same concentration (as the PDE4 IC50, 12 nM or less)
Experimental: as §1

Chain of PDE2 (O00408 whole entry): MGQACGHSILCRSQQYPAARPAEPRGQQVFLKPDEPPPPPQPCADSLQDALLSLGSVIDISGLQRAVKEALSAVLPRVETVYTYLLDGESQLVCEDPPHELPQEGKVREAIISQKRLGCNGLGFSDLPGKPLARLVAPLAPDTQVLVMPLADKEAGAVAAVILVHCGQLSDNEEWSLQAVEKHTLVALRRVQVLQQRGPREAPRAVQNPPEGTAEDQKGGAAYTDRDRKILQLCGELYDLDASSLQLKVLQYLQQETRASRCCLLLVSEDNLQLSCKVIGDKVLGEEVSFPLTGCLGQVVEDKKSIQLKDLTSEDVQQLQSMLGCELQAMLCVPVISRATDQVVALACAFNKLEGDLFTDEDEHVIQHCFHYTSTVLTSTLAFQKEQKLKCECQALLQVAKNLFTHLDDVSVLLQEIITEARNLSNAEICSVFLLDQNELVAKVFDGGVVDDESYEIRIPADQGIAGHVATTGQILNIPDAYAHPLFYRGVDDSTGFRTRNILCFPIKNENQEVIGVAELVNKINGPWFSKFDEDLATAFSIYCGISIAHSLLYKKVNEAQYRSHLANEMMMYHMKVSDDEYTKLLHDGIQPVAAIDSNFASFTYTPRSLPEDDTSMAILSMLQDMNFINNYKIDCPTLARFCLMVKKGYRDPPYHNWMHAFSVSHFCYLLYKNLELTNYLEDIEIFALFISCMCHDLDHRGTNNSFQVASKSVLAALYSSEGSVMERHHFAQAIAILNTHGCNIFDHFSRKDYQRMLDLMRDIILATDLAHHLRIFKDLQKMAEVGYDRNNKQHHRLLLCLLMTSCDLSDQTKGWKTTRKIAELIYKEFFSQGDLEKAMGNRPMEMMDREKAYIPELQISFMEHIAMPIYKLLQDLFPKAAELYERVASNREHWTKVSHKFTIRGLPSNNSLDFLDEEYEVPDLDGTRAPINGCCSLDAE

Compound | melting point [°C] | inhibitory activity against PDE5 [1] | inhibitory activity against PDE2 [3] | inhibitory activity against PDE1 [2] | inhibitory activity against PDE3 [4]
COc1ccc(-c2cccc(C(=O)N3CCN(c4ccc(C(N)=O)cc4)CC3)n2)cc1OC [Example 12, 4-{4-[6-(3,4-dimethoxyphenyl)pyridine-2-carbonyl]piperazin-1-yl}benzamide] | 237 to 240 |  |  |  | 
COc1ccc(-c2cccc(C(=O)N3CCN(c4ccc(NS(C)(=O)=O)cc4)CC3)n2)cc1OC [Example 16, 4′-{4-[6-(3,4-dimethoxyphenyl)pyridine-2-carbonyl]piperazin-1-yl}methanesulfonanilide] | 168 to 170 |  |  |  | 
COc1ccc(-c2cccc(C(=O)N3CCN(c4ccc(N)cc4)CC3)n2)cc1OC [Example 9, 1-[6-(3,4-dimethoxyphenyl)pyridine-2-carbonyl]-4-(4-aminophenyl) piperazine] | 164 to 165 |  |  |  | 
COc1ccc(-c2cccc(C(=O)N3CCN(c4ccc(NC(C)=O)cc4)CC3)n2)cc1OC [Example 43, 4′-{4-[6-(3,4-dimethoxyphenyl)pyridine-2-carbonyl]piperazin-1-yl}acetanilide] | 201 to 203 | hardly exhibited inhibitory activity | hardly exhibited inhibitory activity | hardly exhibited inhibitory activity | hardly exhibited inhibitory activity
4-{2-[(6-{4-]6-(3,4-dimethoxyphenyl)pyridine-2-carbonyl)piperazin-1-yl}-3-pyridyl}oxylethyl)morpholine [Example 99] |  | hardly exhibited inhibitory activity | hardly exhibited inhibitory activity | hardly exhibited inhibitory activity | hardly exhibited inhibitory activity
COc1ccc(-c2cccc(C(=O)N3CCN(c4ccc(N5CCOCC5)cc4)CC3)n2)cc1OC [Example 15, 4-(4-{4-[6-(3,4-dimethoxyphenyl)pyridine-2-carbonyl]piperazin-1-yl)phenyl)morpholine] | 129 to 130 | hardly exhibited inhibitory activity | hardly exhibited inhibitory activity | hardly exhibited inhibitory activity | hardly exhibited inhibitory activity
COc1ccc(N2CCN(C(=O)c3cccc(-c4ccc(OC)c(OC)c4)n3)CC2)cc1 [Example 2, 1-[6-(3,4-dimethoxyphenyl)pyridine-2-carbonyl]-4-(4-methoxyphenyl)piperazine] | 169 to 172 | hardly exhibited inhibitory activity | hardly exhibited inhibitory activity | hardly exhibited inhibitory activity | hardly exhibited inhibitory activity
COc1ccc(-c2cccc(C(=O)N3CCN(c4ccc(OCc5cc[n+]([O-])cc5)cc4)CC3)n2)cc1OC [Example 10, 1-[6-(3,4-dimethoxyphenyl)pyridine-2-carbonyl]-4-[4-(1-oxido-4-pyridylmethoxy)phenyl]piperazine] | 182 to 183 | hardly exhibited inhibitory activity | hardly exhibited inhibitory activity | hardly exhibited inhibitory activity | hardly exhibited inhibitory activity
COc1ccc(-c2cccc(C(=O)N3CCN(c4ccc(C(C)=O)cc4)CC3)n2)cc1OC [Example 32] | 161 to 163 | hardly exhibited inhibitory activity | hardly exhibited inhibitory activity | hardly exhibited inhibitory activity | hardly exhibited inhibitory activity
CCN(CC)CCC(=O)Nc1ccc(N2CCN(C(=O)c3cccc(-c4ccc(OC)c(OC)c4)n3)CC2)cc1 [Example 45, 3-diethylamino-4′-{4-[6-(3,4-dimethoxyphenyl)pyridine-2-carbonyl]piperazin-1-yl}propananilide] | 131 to 134 | hardly exhibited inhibitory activity | hardly exhibited inhibitory activity | hardly exhibited inhibitory activity | hardly exhibited inhibitory activity

Now from value to compound, other results behind:

melting point [°C] | inhibitory activity against PDE5 [1] | inhibitory activity against PDE2 [3] | Compound | inhibitory activity against PDE1 [2] | inhibitory activity against PDE3 [4]
143 to 144 | hardly exhibited inhibitory activity | hardly exhibited inhibitory activity | COc1ccc(-c2cccc(C(=O)N3CCN(c4ccc(OCCN5CCC(O)CC5)cc4)CC3)n2)cc1OC [Example 95, 1-[2-(4-{4-[6-(3,4-dimethoxyphenyl)pyridine-2-carbonyl]piperazin-1-yl}phenoxy)ethyl]piperidin-4-ol] | hardly exhibited inhibitory activity | hardly exhibited inhibitory activity
168 to 170 |  |  | COc1ccc(-c2cccc(C(=O)N3CCN(c4ccc(C(C)=O)cc4)CC3)n2)cc1F [Example 115] |  | 
142 to 144 |  |  | COc1ccc(-c2cccc(C(=O)N3CCN(c4ccc(C(C)=O)cc4)CC3)n2)cc1OCC1CC1 (hydrate or solvate) [Example 112, 1-(4-{4-[6-(3-cyclopropylmethoxy-4-methoxyphenyl)pyridine-2-carbonyl]piperazin-1-yl}phenyl)ethanone] |  | 
144 to 145 | hardly exhibited inhibitory activity | hardly exhibited inhibitory activity | COc1ccc(-c2cccc(C(=O)N3CCN(c4cccc(Br)n4)CC3)n2)cc1OC [Example 77, 1-(6-bromo-2-pyridyl)-4-[6-(3,4-dimethoxyphenyl)pyridine-2-carbonyl]piperazine] | hardly exhibited inhibitory activity | hardly exhibited inhibitory activity
160 to 162 |  |  | COc1ccc(-c2cccc(C(=O)N3CCN(c4ccc(C(C)=O)cc4)CC3)n2)cc1OC(F)F [Example 114] |  | 
 | hardly exhibited inhibitory activity | hardly exhibited inhibitory activity | COc1ccc(-c2cccc(C(=O)N3CCN(c4ccc(C(C)=O)cc4)CC3)n2)cc1OCC1CC1 [Example 112, 1-(4-{4-[6-(3-cyclopropylmethoxy-4-methoxyphenyl)pyridine-2-carbonyl]piperazin-1-yl}phenyl)ethanone] | hardly exhibited inhibitory activity | hardly exhibited inhibitory activity
168 to 170 |  |  | COc1ccc(-c2cccc(C(=O)N3CCN(c4ccc(C(C)=O)cc4)CC3)n2)cc1Cl [Example 113] |  | 
